Experimental data from PMC7175277, “Hydroxylamine Analogue of Agmatine: Magic Bullet for Arginine Decarboxylase” (Biomolecules, 2020).
Entries after “also recorded” stand apart in the source; their conditions may differ.

How the values were obtained:
E. coli ADC = molecular target: T1, E. coli ADC (Escherichia coli, UniProt P21170); experiment: E. coli ADC activity assay (HPLC of agmatine); type: biochemical; details: for inhibition at 0.1 µM: AO-Agm 100 nM; for inhibition at 0.1 µM / inhibition at 0.5 µM: no preincubation; for inhibition at 0.5 µM: AO-Agm 500 nM
T1 construct: The kinetic parameters determined for the partially purified biosynthetic ADC from E. coli; endogenous in cells; host or cells: E. coli DH5α (39-53% ammonium sulphate fraction of the lysate, desalted)
T1 sequence (P21170 1-658): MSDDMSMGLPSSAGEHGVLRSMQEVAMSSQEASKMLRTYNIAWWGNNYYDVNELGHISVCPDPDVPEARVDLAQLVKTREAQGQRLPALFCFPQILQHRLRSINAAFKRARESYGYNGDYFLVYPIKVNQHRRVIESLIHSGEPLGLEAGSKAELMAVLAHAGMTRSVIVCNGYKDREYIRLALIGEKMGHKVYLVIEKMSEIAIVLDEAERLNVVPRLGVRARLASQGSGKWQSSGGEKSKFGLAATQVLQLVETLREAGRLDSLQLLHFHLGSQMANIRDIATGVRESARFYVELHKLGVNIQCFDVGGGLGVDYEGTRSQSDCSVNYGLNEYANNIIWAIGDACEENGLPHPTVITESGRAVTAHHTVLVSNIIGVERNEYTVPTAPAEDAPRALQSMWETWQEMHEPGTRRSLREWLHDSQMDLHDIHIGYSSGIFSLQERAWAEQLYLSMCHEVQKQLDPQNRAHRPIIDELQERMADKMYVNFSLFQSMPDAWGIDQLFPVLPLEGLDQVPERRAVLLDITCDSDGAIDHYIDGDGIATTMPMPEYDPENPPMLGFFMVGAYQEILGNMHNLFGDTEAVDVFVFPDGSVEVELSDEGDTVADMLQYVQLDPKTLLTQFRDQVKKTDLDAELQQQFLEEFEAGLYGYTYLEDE
Experimental: (§1) The purification was performed using a modified procedure of earlier publication. E. coli strain DH5α was grown in Luria-Bertani broth at +37 °C with shaking (200 rpm) overnight. The cells were collected by centrifugation and the pellet was homogenized with Potter-Elvehjem in 10 volumes (w/v) of ice-cold 50 mM Tris-HCl pH 7.4, 1 mM DTT. The cell debris was removed by centrifugation at 12,000 g for 30 min at +4 °C. Solid (NH4)2SO4 was added to the supernatant, and the pellet precipitating between 39% and 53% saturation was separated. The precipitate was resuspended in ice-cold buffer containing 50 mM Tris-HCl pH 7.4 and 1 mM DTT and desalted by passage through Sephadex G-25 column (NAP-10 column, GE Healthcare). The protein concentration was measured with Bio-Rad protein reagent, and the partially purified enzyme preparation was mixed with 20% glycerol and aliquoted for storage at −80 °C.
[…] The ODC reaction mixture contained 50 mM Tris-HCl pH 7.8, 1 mM EDTA, 2.4 mM DTT, 0.1 mM PLP and 20 μg of partially purified enzyme preparation. The mixtures were either preincubated or not preincubated for 15 min at +40 °C in the presence of the inhibitor, after which the reaction was started by the addition of 18 μL of 10× substrate (L-Arg for ADC and L-Orn for ODC). After incubation for 30 min (ADC) or 20 min (ODC) at +40 °C, 20 μL of 50% sulphosalicylic acid containing 50 μM diaminoheptane (internal standard) was added and the samples were analyzed for the content of agmatine (ADC) and Put (ODC) with HPLC as described previously. The kinetic parameters and IC50 values were determined with the aid of GraphPad Prism version 5.03 using nonlinear regression analysis.

[1] = tested on: DU145 prostate cancer cells; experiment: Growth of DU145 cells; type: cell-based; details: for Growth: 3 days
Experimental: (§2) DU145 prostate cancer cells were cultured in high-glucose Dulbecco’s Modified Eagle’s Medium supplemented with 10% heat-inactivated fetal bovine serum, 2 mM L-glutamine and 50 μg/mL gentamycin (all from Sigma-Aldrich). The cells were plated on 6-well plates and allowed to attach overnight. […] The cells were harvested, and the pellet was mixed with 150 μL of 5% sulphosalicylic acid containing 5 μM diaminoheptane (internal standard). Polyamine analysis was carried out as described previously.

E. coli ODC = E. coli ODC (Escherichia coli, UniProt P21169); experiment: E. coli ODC activity assay (HPLC of Put); type: biochemical
Experimental: as §1
The ADC reaction mixture contained 50 mM Tris-HCl pH 7.8, 4 mM MgCl2, 1 mM DTT, 1.0 or 0.1 mM PLP and 20 μg of partially purified enzyme preparation in a total volume of 162 μL. The ODC reaction mixture contained 50 mM Tris-HCl pH 7.8, 1 mM EDTA, 2.4 mM DTT, 0.1 mM PLP and 20 μg of partially purified enzyme preparation. […] After incubation for 30 min (ADC) or 20 min (ODC) at +40 °C, 20 μL of 50% sulphosalicylic acid containing 50 μM diaminoheptane (internal standard) was added and the samples were analyzed for the content of agmatine (ADC) and Put (ODC) with HPLC as described previously. The kinetic parameters and IC50 values were determined with the aid of GraphPad Prism version 5.03 using nonlinear regression analysis.

[2] = tested on: DU145 prostate cancer cells; experiment: Intracellular polyamine pools of DU145 cells; type: cell-based; details: 3 days
Experimental: as §2

[3] = 0.1 mM PLP, 15 min preincubation, 0.15 mM L-Arg
[4] = AO-Agm 10 μM in the presence of SC (1 mM)
[5] = AO-Agm 100 μM in the presence of SC (1 mM)
[6] = AO-Agm 1 mM in the presence of SC (1 mM)

Chain of E. coli ODC (P21169 whole entry): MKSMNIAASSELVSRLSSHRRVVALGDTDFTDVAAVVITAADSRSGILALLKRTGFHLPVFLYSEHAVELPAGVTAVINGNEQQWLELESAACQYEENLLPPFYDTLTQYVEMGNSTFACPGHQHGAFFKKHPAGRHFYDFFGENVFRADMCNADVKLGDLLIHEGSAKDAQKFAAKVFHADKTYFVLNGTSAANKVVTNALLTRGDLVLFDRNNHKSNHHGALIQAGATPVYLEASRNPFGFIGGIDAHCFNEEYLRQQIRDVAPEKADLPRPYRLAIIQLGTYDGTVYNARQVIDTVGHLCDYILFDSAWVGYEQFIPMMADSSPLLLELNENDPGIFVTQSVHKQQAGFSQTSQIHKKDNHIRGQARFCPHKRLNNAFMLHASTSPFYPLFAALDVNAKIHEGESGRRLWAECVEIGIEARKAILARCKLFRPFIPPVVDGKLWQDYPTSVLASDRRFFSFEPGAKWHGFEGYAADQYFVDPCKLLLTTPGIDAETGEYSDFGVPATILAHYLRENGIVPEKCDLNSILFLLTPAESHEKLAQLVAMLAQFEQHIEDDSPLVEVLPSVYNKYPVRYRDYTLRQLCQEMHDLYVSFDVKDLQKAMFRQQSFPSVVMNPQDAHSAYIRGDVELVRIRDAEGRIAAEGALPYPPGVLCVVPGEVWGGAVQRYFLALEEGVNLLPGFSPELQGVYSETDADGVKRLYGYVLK

N=C(N)NCCCON [AO-Agm, 1-aminooxy-3-guanidinopropane]
IC50 (E. coli ADC; 0.01 mM PLP, 15 min preincubation, 0.15 mM L-Arg): 26 ± 1 nM
Effect of omitting the preincubation time on the efficiency of ADC inhibition (E. coli ADC; 0.1 mM PLP, 0.15 mM L-Arg): did not significantly alter
IC50 (E. coli ADC; [3]): 30 ± 1 nM
Potency as ADC inhibitor relative to DFMA (more potent) (E. coli ADC; [3]): 330 times
IC50 (E. coli ADC; 1 mM PLP, 15 min preincubation, 0.15 mM L-Arg): 89 ± 1 nM
inhibition at 0.1 µM (E. coli ADC; 0.15 mM L-Arg, 0.1 mM PLP): 25%
inhibition at 0.1 µM (E. coli ADC; 1.5 mM L-Arg, 0.1 mM PLP): ~5%
inhibition at 0.5 µM (E. coli ADC; 0.15 mM L-Arg, 0.1 mM PLP): 95%
inhibition at 0.5 µM (E. coli ADC; 1.5 mM L-Arg, 0.1 mM PLP): 60%
Growth [1, 4]: 0.94 ± 0.03 Fold
Growth ([1]; AO-Agm 10 μM, no SC): 0.96 ± 0.02 Fold
Proliferation and intracellular polyamine pools of DU145 cells ([1]; AO-Agm 0.01 mM and 0.1 mM): without effect
Growth [1, 5]: 0.97 ± 0.02 Fold
Growth ([1]; AO-Agm 100 μM, no SC): 0.96 ± 0.04 Fold
Proliferation of DU145 cells ([1]; AO-Agm 1 mM): moderately inhibited
Growth [1, 6]: 0.45 ± 0.01 Fold
Growth ([1]; AO-Agm 1 mM, no SC): 0.72 ± 0.04 Fold
Potency towards E. coli ODC relative to E. coli ADC (E. coli ODC): almost two orders of magnitude less potent; also recorded: almost two orders of magnitude less efficient
Put [2, 4]: 922 ± 60 pmol/mg Protein
Spd [2, 4]: 6405 ± 61 pmol/mg Protein
Spm [2, 4]: 3903 ± 72 pmol/mg Protein
Put ([2]; AO-Agm 10 μM, no SC): 1515 ± 98 pmol/mg Protein
Spd ([2]; AO-Agm 10 μM, no SC): 7237 ± 73 pmol/mg Protein
Spm ([2]; AO-Agm 10 μM, no SC): 3782 ± 55 pmol/mg Protein
Put [2, 5]: 954 ± 115 pmol/mg Protein
Spd [2, 5]: 6280 ± 122 pmol/mg Protein
Spm [2, 5]: 3621 ± 87 pmol/mg Protein
Put ([2]; AO-Agm 100 μM, no SC): 1447 ± 43 pmol/mg Protein
Spd ([2]; AO-Agm 100 μM, no SC): 7047 ± 155 pmol/mg Protein
Spm ([2]; AO-Agm 100 μM, no SC): 3682 ± 152 pmol/mg Protein
Spd [2, 6]: 1074 ± 159 pmol/mg Protein
Spm [2, 6]: 2389 ± 105 pmol/mg Protein
Put ([2]; AO-Agm 1 mM, no SC): 1074 ± 30 pmol/mg Protein
Spd ([2]; AO-Agm 1 mM, no SC): 3609 ± 124 pmol/mg Protein
Spm ([2]; AO-Agm 1 mM, no SC): 3795 ± 98 pmol/mg Protein
